Results taken from patent US20100120776A1, “Carbocysteine medical foods” (Hall Bioscience Corporation, priority 2008, published 2010).

Experiments:
[1] = Buccal availability study: pharmacokinetics and bioavailability of carbocysteine in dogs (buccal vs oral vs IV); settings: beagle dogs; range across buccal and oral routes; no significant differences
Protocol: (§1) A study was conducted in dogs to determine the pharmacokinetics and bioavailability of a buccal formulation of carbocysteine in comparison to oral and IV routes of administration.
(§2) The study was conducted according to the following methodology. A 400 mg dissolving tablet, a 400 mg oral tablet, and a 200 mg IV dose of carbocysteine were administered to each of five beagle dogs in a randomized crossover pattern. […] The dissolving tablet was administered to the animal by placing the tablet in the mouth until it dissolved. The oral tablet was administered by forcing the animal to swallow the tablet. […] Plasma concentrations were measured by precolumn derivatization of S-carboxymethylcysteine using o-phthaldialdehyde (OPA) and subsequent HPLC analysis. All data were analyzed using WinNonlin®, a tool for pharmacokinetic and pharmacodynamic analysis. The carbocysteine plasma data was fitted to a one-compartment model with first-order elimination. The pharmacokinetic parameters (t1/2, CL, Vd) generated from each route of administration were compared using analysis of variance (ANOVA) to detect statistically significant differences. A paired t-test was used to detect the differences in Cmax, Tmax, Ka, and F between buccal and oral routes of administration.

[2] = in vivo; settings: beagle, dog, plasma
Protocol: as §1, §2

Ka [1]: 0.028−0.034 min^−1
Vd [2]: 0.405 to 0.418 L/kg
clearance [2]: 4.52 to 4.64 mL/min/kg
half-life [2]: 1.02 to 1.07 h
Tmax ([2]; 400 mg): 1.5 to 1.55 h
SMILES: N[C@@H](CSCC(=O)O)C(=O)O [carbocysteine, S-carboxymethyl-L-cysteine]
